Bounds are passed on as bounds.

Assay [1] addresses T1, human NLRP3 (Homo sapiens, UniProt Q96P20). As to the kind of experiment: Human PBMC NLRP3 Assay (IL-1β release). The assay is classed as cell-based. Also noted: Human PBMCs (Normal): iXCells Cat #10HU-003; host or cells: human PBMCs (normal donors), LPS-primed, nigericin-stimulated. To be noted: human PBMCs, LPS priming 4 h, nigericin stimulation 1 h; class symbols. The procedure: Reagents: Human PBMCs (Normal): iXCells Cat #10HU-003; RPMI 1640 medium (ATCC modification): ThermoFisher Cat #A1049101 (Complete Media: 10% FBS, 1% Pen/Strep; Assay Media: 1% Pen/Strep; 75 cm^2 cell culture flask: Corning Cat #430641U; 96-well cell culture plates: VWR Cat #10062-900; LPS (E. coli 026:B6): Sigma Cat #L2654, stock 5 mg/mL in PBS; Nigericin sodium salt: Sigma Cat #N7143, stock 5 mg/mL (6.7 mM) in ethanol.
Cryopreserved PBMCs (10×10^6 cells/vial) were rapidly thawed in a 37° C. water bath for 2 min and transferred in 10 mL Complete Media. Cells were then centrifuged at 1200 RPM for 5 min, resuspended in 40 mL of Complete Media, transferred in a 75 cm^2 cell culture flask and incubated overnight at 37° C. with 5% CO2. The next day, PBMCs were centrifuged, resuspended in 30 mL Assay Media (˜3.3×10^5 cells/mL) and distributed at 100 μL/well in a 96-well cell culture plate. 50 μl of Assay Media containing 300 ng/ml of LPS was then added to each well except for the untreated control wells (50 μl Assay Media without LPS). Cells were then primed with LPS for 4 h at 37° C. with 5% CO2. A concentration response curve (CRC) was prepared of 500× test compound in 100% dimethyl sulfoxide (DMSO). The CRC was then diluted 1:25 in Assay Media and then further diluted 1:5 in Assay Media resulting in a final 4× CRC in 0.8% DMSO/Assay Media. 50 μL/well of 4× test compound CRC or vehicle (0.8% DMSO/Assay Media) was then transferred into each well and subsequently incubated for 30 min at 37° C. with 5% CO2. Cells were stimulated by adding 4 μL of 500 μM Nigericin, for 1 h at 37° C. with 5% CO2 Plates were then centrifuged at 1200 RPM for 5 min and 100 μl of the media was transferred to a clean 96-well storage plate and stored at −80° C. until analyzed. Cytokine measurements were performed using the mesoscale platform. Compounds were added 30 minutes before priming the cells with LPS when TNFα was required to be quantified in the cytokine panel to confirm selectivity.
Human PBMC NLRP3 Assay: A represents an IC50 value <0.3 μM; B represents an IC50 value ≥0.3 μM and <0.5 μM; C represents an IC50 value ≥0.5 μM and <1.0 μM; D represents an IC50 value >1.0 μM and <10 μM; E represents an IC50 value >10 μM.

In assay [2] the target is T1, human NLRP3. As to the kind of experiment: Human Whole Blood (hWB) NLRP3 Assay (IL-1β MSD). The assay is classed as cell-based. The note with it: LPS 1 μg/ml 4.5 h, ATP 30 min, class symbols. The procedure: Human whole blood was drawn from healthy volunteers after obtaining written informed consent. Heparin lithium coated tubes were used to collect blood from volunteers. Blood samples were distributed on 96 well plates using 90 μl per well. Priming was performed by adding 5 μl of LPS (O26:B6; Sigma L-2654) at a final concentration of 1 μg/ml for 4.5 hours in a humidified incubator with 37° C., 5% CO2. Thirty minutes prior to NLRP3 activation, 5 μl of a 20× compound solution or vehicle (2% DMSO) was added to each well and plates were incubated on a shaker (450 rpm) in a humidified incubator with 37° C., 5% CO2. Activation was then performed by adding 3.3 μl of a 31× ATP solution per well. At the end of the 30 minutes stimulation, the plates were centrifuged (800 g, 10 min, room temperature) and the plasma from each well was frozen at −80° C. IL-1β levels in the supernatant were analyzed using a mesoscale discovery assay (MSD K151TUK) according to the manufacturers' instructions.
hWB IL-1β Assay: A represents an IC50 value <0.3 μM; B represents an IC50 value ≥0.3 μM and <0.5 μM; C represents an IC50 value ≥0.5 μM and <1.0 μM; D represents an IC50 value >1.0 μM.

T1 sequence (Q96P20 whole entry): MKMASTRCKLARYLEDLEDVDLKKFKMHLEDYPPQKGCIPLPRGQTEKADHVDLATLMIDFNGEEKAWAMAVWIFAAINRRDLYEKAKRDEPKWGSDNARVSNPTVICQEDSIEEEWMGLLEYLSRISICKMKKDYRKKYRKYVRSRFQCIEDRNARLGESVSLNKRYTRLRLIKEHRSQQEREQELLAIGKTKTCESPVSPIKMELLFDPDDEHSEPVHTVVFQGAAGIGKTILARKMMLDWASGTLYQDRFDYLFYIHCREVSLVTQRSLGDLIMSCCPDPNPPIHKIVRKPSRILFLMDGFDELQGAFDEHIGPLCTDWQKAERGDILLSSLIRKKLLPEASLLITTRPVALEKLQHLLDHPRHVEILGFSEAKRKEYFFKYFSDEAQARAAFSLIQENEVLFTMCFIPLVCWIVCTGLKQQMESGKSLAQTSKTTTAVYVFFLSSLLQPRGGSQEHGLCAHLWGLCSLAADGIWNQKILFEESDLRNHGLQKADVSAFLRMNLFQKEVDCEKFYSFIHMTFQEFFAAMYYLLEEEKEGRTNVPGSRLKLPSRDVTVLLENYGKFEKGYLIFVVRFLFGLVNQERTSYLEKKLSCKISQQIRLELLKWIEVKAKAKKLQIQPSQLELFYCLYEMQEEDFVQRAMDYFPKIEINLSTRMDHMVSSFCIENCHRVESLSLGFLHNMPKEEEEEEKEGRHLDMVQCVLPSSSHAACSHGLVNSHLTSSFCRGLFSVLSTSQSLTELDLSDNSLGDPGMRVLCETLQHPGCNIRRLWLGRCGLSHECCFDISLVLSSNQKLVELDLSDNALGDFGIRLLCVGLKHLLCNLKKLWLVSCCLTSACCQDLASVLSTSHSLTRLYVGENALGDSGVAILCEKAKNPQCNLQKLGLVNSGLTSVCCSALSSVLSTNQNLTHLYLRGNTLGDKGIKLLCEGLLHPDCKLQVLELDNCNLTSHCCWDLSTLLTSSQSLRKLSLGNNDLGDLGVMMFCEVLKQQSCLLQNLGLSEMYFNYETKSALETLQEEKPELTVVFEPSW

For `CC1(C)C(=O)N(CC(=O)NC2(CCC(=O)O)CCOC2)c2ccc(Br)cc21` (racemic) [Rac-3, 3-(3-(2-(5-bromo-3,3-dimethyl-2-oxoindolin-1-yl)acetamido)tetrahydrofuran-3-yl)propanoic acid], the IC50 (commonly the midpoint of a concentration-inhibition curve) against human NLRP3 [1] is less than 300 nM; against human NLRP3 [2], 500 to 1000 nM.
Take `C[C@@H](CC(=O)O)[C@@H](C)NC(=O)CN1C(=O)C(C)(C)c2c1ccc(C1CC1)c2F` (single isomer, unassigned) [Compound 58A*]: the IC50 against human NLRP3 [1] is less than 300 nM; against human NLRP3 [2], 500 to 1000 nM.
For `CC1(C)C(=O)N(CC(=O)NCCCC(=O)O)c2ccc(Br)c(F)c21` [Compound 21, 4-(2-(5-bromo-4-fluoro-3,3-dimethyl-2-oxoindolin-1-yl)acetamido)butanoic acid], in that order: less than 300 nM and less than 300 nM.
For `CC1(C)C(=O)N(CC(=O)NCCCC(=O)O)c2ccc(I)cc21` [Compound 22, 4-(2-(5-iodo-3,3-dimethyl-2-oxoindolin-1-yl)acetamido)butanoic acid], in that order: less than 300 nM and less than 300 nM.
The corresponding values for `CC1(C)C(=O)N(CC(=O)NCCCC(=O)O)c2c(O)cc(I)cc21` [Compound 28, 4-(2-(7-hydroxy-5-iodo-3,3-dimethyl-2-oxoindolin-1-yl)acetamido)butanoic acid] are less than 300 nM and greater than 1000 nM.
For the compound `CN(CCCC(=O)O)C(=O)CN1C(=O)C(C)(C)c2cc(Br)cc(O)c21` [Compound 30, 4-(2-(5-bromo-7-hydroxy-3,3-dimethyl-2-oxoindolin-1-yl)-N-methylacetamido)butanoic acid], the IC50 against human NLRP3 [1] was less than 300 nM; against human NLRP3 [2] it was greater than 1000 nM.
On to `CC(C)(CCC(=O)O)NC(=O)CN1C(=O)C(C)(C)c2cc(Br)cc(O)c21` [Compound 31, 4-(2-(5-bromo-7-hydroxy-3,3-dimethyl-2-oxoindolin-1-yl)acetamido)-4-methylpentanoic acid], for which the IC50 against human NLRP3 [1] was less than 300 nM; against human NLRP3 [2] it was 500 to 1000 nM.
Take `CC1(C)C(=O)N(CC(=O)NCCCc2nnn[nH]2)c2c(O)cc(Br)cc21` [Compound 33, N-(3-(1H-tetrazol-5-yl)propyl)-2-(5-bromo-7-hydroxy-3,3-dimethyl-2-oxoindolin-1-yl)acetamide]: the IC50 at human NLRP3 [1] was less than 300 nM; against human NLRP3 [2], greater than 1000 nM.
Take `CC1(C)C(=O)N(CC(=O)NCC2(CC(=O)O)CC2)c2c(O)cc(Br)cc21` [Compound 35, 2-(1-((2-(5-bromo-7-hydroxy-3,3-dimethyl-2-oxoindolin-1-yl)acetamido)methyl)cyclopropyl)acetic acid]: the results for the IC50 against human NLRP3 [1] and on human NLRP3 [2] were less than 300 nM and greater than 1000 nM, respectively.
Regarding `C[C@@H](CCC(=O)O)NC(=O)CN1C(=O)C(C)(C)c2cc(Br)cc(O)c21` [Compound 41B, (S)-4-(2-(5-bromo-7-hydroxy-3,3-dimethyl-2-oxoindolin-1-yl)acetamido)pentanoic acid], the results for the IC50 at human NLRP3 [1] and against human NLRP3 [2] were less than 300 nM and greater than 1000 nM, respectively.

For the origin of these results see patent US20240368131A1, “OXOINDOLINYL AMIDE DERIVATIVES FOR INHIBITING NLRP3 AND USES THEREOF” (VENTUS THERAPEUTICS U.S. INC., priority 2022, published 2024).
